We go through 3 molecules from ChEMBL document CHEMBL4602617, “Discovery and optimization of heteroaryl piperazines as potent and selective PI3Kδ inhibitors” (Bioorg Med Chem Lett, 2020).

A short description of series [1]: Clearance in rat liver microsomes. The series is classed as ADME, Microsome. The following applies: read-out: CLH. In general terms: Liver microsomes are a subcellular fraction often used to study metabolism.
Series [2] is described as follows: Protein binding in Wistar Han rat plasma at 0.05 mg/kg, iv administered as cassette dose. The following applies: read-out: PPB (converted). It counts as ADME, organism-based.
In series [3] the target is PI3-kinase p110-delta/p85-alpha (Homo sapiens, UniProt O00329). In words: Inhibition of recombinant human full-length N-terminal GST-tagged p110delta/untagged full-length p85alpha expressed in baculovirus infected Sf21 cells using PIP2 as substrate preincubated for 15 mins followed by substrate addition and measured after 1 hr by HTRF assay. (In general: Time-resolved FRET reads energy transfer from a long-lived donor to a nearby acceptor.)
Sequence of PI3-kinase p110-delta/p85-alpha (P27986 whole entry, one chain of several): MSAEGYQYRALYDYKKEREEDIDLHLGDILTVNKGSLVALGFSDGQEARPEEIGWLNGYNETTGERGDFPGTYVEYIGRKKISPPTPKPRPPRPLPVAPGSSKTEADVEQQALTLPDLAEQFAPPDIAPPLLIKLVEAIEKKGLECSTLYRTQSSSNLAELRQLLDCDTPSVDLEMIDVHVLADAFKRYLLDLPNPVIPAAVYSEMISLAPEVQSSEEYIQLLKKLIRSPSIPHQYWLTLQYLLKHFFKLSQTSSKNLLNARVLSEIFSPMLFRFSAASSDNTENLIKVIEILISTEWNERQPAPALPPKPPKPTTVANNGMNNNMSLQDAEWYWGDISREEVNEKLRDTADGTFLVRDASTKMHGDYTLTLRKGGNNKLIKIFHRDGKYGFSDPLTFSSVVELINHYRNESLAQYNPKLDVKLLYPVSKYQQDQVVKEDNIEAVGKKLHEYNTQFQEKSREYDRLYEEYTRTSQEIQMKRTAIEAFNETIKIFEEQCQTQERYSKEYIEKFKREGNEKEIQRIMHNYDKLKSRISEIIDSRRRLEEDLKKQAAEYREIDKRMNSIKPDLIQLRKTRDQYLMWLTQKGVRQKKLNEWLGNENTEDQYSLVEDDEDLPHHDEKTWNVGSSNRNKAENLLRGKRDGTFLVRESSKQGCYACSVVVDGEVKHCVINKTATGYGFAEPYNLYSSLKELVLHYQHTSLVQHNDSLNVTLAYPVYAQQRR

Series [4] can be described thus: Distribution coefficient, logD of compound by HPLC analysis. It counts as physicochemical. The following applies: octanol/water.
The species named for series [5] is Homo sapiens. The series can be described thus: Selectivity index, ratio IC50 for inhibition of recombinant human full-length N-terminal His6-tagged p110beta/untagged full-length p85alpha expressed in baculovirus infected Sf21 cells to ratio IC50 for inhibition of recombinant human full-length N-terminal GST-tagged p110delta/untagged full-length p85alpha expressed in baculovirus infected Sf21 cells.

Series [6] is described as follows: Volume of drug distribution in Wistar Han rat at 0.05 mg/kg, iv administered as cassette dose. The settings on record: in vivo. The series is classed as ADME, organism-based.
The target in series [7] is T1, Phosphatidylinositol 4,5-bisphosphate 3-kinase catalytic subunit delta isoform (Homo sapiens, UniProt O00329).
T1 sequence (O00329 whole entry): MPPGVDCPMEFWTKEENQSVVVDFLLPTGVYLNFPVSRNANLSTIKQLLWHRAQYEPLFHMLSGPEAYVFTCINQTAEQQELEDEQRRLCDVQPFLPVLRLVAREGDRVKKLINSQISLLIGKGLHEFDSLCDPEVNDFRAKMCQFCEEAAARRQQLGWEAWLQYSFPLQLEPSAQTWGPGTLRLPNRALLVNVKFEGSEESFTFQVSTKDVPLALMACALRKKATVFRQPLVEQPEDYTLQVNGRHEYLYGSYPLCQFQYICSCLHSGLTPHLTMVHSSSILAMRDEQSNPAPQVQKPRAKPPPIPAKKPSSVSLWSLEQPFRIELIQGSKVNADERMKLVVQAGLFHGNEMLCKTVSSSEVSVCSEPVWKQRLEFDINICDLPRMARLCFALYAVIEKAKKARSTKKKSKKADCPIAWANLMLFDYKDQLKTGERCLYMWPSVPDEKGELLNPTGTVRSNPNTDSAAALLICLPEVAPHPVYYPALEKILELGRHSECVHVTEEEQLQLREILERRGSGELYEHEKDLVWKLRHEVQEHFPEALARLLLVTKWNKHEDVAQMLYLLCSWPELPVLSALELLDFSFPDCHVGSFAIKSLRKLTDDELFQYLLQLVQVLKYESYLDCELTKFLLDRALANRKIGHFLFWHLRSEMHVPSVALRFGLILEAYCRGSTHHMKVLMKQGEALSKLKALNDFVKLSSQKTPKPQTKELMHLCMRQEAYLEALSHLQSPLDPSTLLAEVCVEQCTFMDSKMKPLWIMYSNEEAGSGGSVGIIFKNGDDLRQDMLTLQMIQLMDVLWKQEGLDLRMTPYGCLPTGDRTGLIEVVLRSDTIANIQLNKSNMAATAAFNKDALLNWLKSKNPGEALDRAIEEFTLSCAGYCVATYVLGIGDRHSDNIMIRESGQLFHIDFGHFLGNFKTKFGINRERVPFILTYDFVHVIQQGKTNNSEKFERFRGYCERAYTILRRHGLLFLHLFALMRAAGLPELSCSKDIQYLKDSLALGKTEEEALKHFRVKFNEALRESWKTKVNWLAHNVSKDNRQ
The series can be described thus: Inhibition of PI3K delta in human whole blood assessed as inhibition of anti-IgE-stimulated CysLt release in basophils preincubated for 30 mins followed by anti-IgE stimulation and measured after 20 mins. It counts as tissue-based.

The species named for series [8] is Homo sapiens. The series can be described thus: Selectivity index, ratio IC50 for inhibition of recombinant human N-terminal His6-tagged full-length p120gamma expressed in Sf21 insect cells to ratio IC50 for inhibition of recombinant human full-length N-terminal GST-tagged p110delta/untagged full-length p85alpha expressed in baculovirus infected Sf21 cells.
Series [9] can be described thus: Unbound clearance in Wistar Han rat at 0.05 mg/kg, iv administered as cassette dose. It counts as ADME, organism-based. The following applies: in vivo.
Series [10] is described as follows: Clearance in human liver microsomes. The series is classed as ADME, Microsome. The following applies: read-out: CLH.
Series [11] can be described thus: Clearance in Wistar Han rat plasma at 0.05 mg/kg, iv administered as cassette dose. It counts as ADME, organism-based.
Series [12] in a line: Half life in Wistar Han rat at 0.05 mg/kg, iv administered as cassette dose. The series is classed as ADME, organism-based. The settings on record: in vivo.
The species entered for series [13] is Homo sapiens. In words: Selectivity index, ratio IC50 for inhibition of recombinant human full-length N-terminal His6-tagged p110alpha/untagged full-length p85alpha expressed in baculovirus infected Sf21 cells to ratio IC50 for inhibition of recombinant human full-length N-terminal GST-tagged p110delta/untagged full-length p85alpha expressed in baculovirus infected Sf21 cells.

Series [14] in a line: Intrinsic clearance in rat hepatocytes. The series is classed as ADME, cell-based, Hepatocyte. The settings on record: read-out: CLH.
A short description of series [15]: Intrinsic clearance in human hepatocytes. It counts as ADME, cell-based, Hepatocyte. The settings on record: read-out: CLH.

The structures appear in SMILES notation.

Turning to `Cn1cc(-c2ncc(C#N)c(N3C[C@@H]4C[C@H]3CN4C(=O)C3CC3)n2)cn1`, the CLint scaled in series [1] was under 36 mL/min/kg; in [10] it was under 16 mL/min/kg. In addition, the fraction unbound in [2] was 0.54. Besides, the values for the IC50 in series [3] and in series [7] were 161 nM and 258 nM, respectively. Besides, the logD in series [4] came to 1.1. Also, the Ratio IC50 in series [5] was 78; in [8], 78; in series [13], over 78. The molecule further showed a Vd in [6] of 0.9 L/kg. Moreover, the CL free in [9] stood at 85 mL/min/kg. This molecule also had a clearance in [11] of 46 mL/min/kg. The molecule also gave a half-life in series [12] of 12 min.

For the molecule `Cn1cc(-c2ncc(C#N)c(N3C[C@@H]4C[C@H]3CN4c3cccc(F)c3)n2)cn1`, the CLint scaled in series [1] is 1080 mL/min/kg; in [10], 76 mL/min/kg. Moreover, in series [2], the fraction unbound is 0.014. Moreover, the IC50 was 31 nM in [3] and 2960 nM in [7]. The logD in series [4] is 3.1. Further, the Ratio IC50 in [5] was 308; in series [8] it was over 407; in [13], 160. In series [6], this molecule gave a Vd of 4.7 L/kg. The same molecule came in with a CL free in series [9] of 4857 mL/min/kg. In series [11], the clearance was 68 mL/min/kg. For the same molecule, in series [12], the half-life is 66 min.

With `N#Cc1cnc(-c2cccnc2)nc1N1C[C@@H]2C[C@H]1CN2c1cccc(F)c1`, the CLint scaled in series [14] was 234 mL/min/kg; in series [15], 69 mL/min/kg. For the same molecule, the concentration for half-maximal inhibition (IC50) in [3] turned out to be 364 nM. Further, in series [4], the logD came to 3.43. For the same molecule, the Ratio IC50 in series [5], in series [8] and in series [13] was over 27 in each case. The molecule also yielded a distribution volume (Vd) in series [6] of 3.6 L/kg. Besides, in series [11], the clearance was 90 mL/min/kg. This molecule also had a half-life in [12] of 36 min.

As a reminder, the IC50 is the concentration that inhibits the measured activity by half. One may read the logD as lipophilicity at a set pH, counting ionised and neutral species. Low readings indicate lower lipophilicity, high ones higher lipophilicity. As a reminder, the Vd is the apparent volume that relates the amount in the body to the concentration in plasma or blood. A lower Vd goes with little distribution into tissue. By clearance is commonly meant the rate of elimination divided by the concentration. Read a low clearance as inefficient removal. The half-life is how long it takes for the measured level to halve.
